Assay results from PMC12106329, “Chronic alcohol intake disrupts cytochrome P450 enzyme activity in alcoholic fatty liver disease: insights into metabolic alterations and therapeutic targets” (Frontiers in Chemistry, 2025).
Read-outs that look alike come from different tables or passages of the source.

What was measured:
CYP3A1 = conditions: AM group, oral ethanol 12 weeks; compared to NC and SC groups
Procedure: (§1) Sixty healthy male Sprague-Dawley rats (SD-2024-RAT-045, Beijing Vital River Laboratory Animal Technology Co., Ltd., Beijing, China) weighing 200–250 g were selected. The animals were housed under a 12-h light/dark cycle at a constant laboratory temperature of 22°C ± 2°C and relative humidity of 50% ± 10%, with access to ample food and water. Sixty rats were randomly assigned to four groups (fifteen rats per group): the normal control group (NC group), the sucrose solution group (SC group), the ethanol intake group (AM group), and the ethanol intake group with simultaneous overexpression of CYP2C11 and CYP2B6 (AM + oe-CYP2C11&CYP2B6 group). The NC group received an equal volume of normal saline daily via oral gavage. The SC group was given an 18% sucrose solution (w/v) and an equal volume of normal saline instead of ethanol. The AM group started with a 5% ethanol concentration, increasing by 5% weekly to 40% while maintaining a constant 18% sucrose concentration (v/v). The plasmid vector for gene overexpression, pCMV6-AC-GFP (LM-2069, LMAI Bio, Shanghai, China), was used to construct CYP2C11 and CYP2B6 plasmids, which were developed by Sangon Biotech (Shanghai, China). After constructing the AM rat model, overexpression plasmids were transfected into lentiviruses via tail vein injection ([Liu et al., 2020]). The lentivirus injections (5 × 10^7 IU/rat) were administered twice, with a minimum interval of 2 days between injections, starting on day 7 after the initiation of sucrose treatment ([Ma et al., 2020]).
(§2) The daily ethanol and sucrose feeding volumes were weight-adjusted for the rats, approximately 20 mL per kilogram of body weight, and continued for 12 weeks. Weekly monitoring of rat weight, observation and recording of appetite, general health status including activity level, fur condition, and behavioral changes were documented. Daily feeding amounts were meticulously recorded to accurately adjust ethanol and sucrose solution volumes. After 12 weeks, the rats were euthanized by cervical dislocation following unconsciousness induced by carbon dioxide (CO₂) inhalation. Liver tissues were dissected and stored at −80°C for subsequent histological and molecular biology analyses. Blood samples were collected, and serum was separated by centrifugation (3,000 rpm, 4°C, 15 min) and stored at −80°C for future use.
Liver samples were lysed using RIPA lysis buffer (P0013B, Beyotime, China). The total protein concentration was evaluated using the BCA protein assay kit (AR0146, Doctor’s Scientific Inc., China). SDS-PAGE was employed to separate total proteins, followed by protein transfer onto pre-wetted PVDF membranes with methanol (IPVH00010, Millipore Corp, United States). Non-specific protein blocking was carried out at room temperature for 3 h using TBST solution (BL315B, Boist, China) containing 5% milk. The target proteins were probed with primary antibodies overnight on […], followed by three washes with TBST/Tween 20 (0.075%) for 15 min each and subsequent incubation with labeled secondary antibodies for 1 h before washing. Protein visualization was performed using the Millipore Immobilon Western Chemiluminescent HRP substrate. The primary antibodies used in the experiments were polyclonal rabbit anti-human CYP450CYP1A2, 2B6, 2C11, 2C19, 2E1, 2D6, 3A1 (bs-20720R, Bioss, China) at a 1:300 dilution. The secondary antibodies, goat anti-mouse or anti-rabbit horseradish peroxidase conjugates, were diluted at 1:10,000 in TBST containing 5% milk. β-actin served as the loading control. The experiments were repeated three times.

[1] = for AUC0-∞ / Cmax / T1/2 / T1/2 el / Tmax / MRT / AUC0-L∞: oral, serum, final dosing after 12 weeks, mean; for AUC0-L∞: time zero to last measurable concentration
Procedure: Rats were administered orally with the same doses of normal saline and ethanol in the NC, SC, and AM groups, following the same method. After 12 weeks, blood samples were collected from the rats at specified time points (0.5, 1, 2, 4, 6, 8, and 12 h post-dosing) during the final dosing. The blood samples were centrifuged to separate serum and then stored at −80°C for further use.
Utilizing liquid chromatography-mass spectrometry (LC-MS) technology, the concentrations of ethanol and its metabolites in serum samples were analyzed. Analyze the pharmacokinetic parameters of the drug, such as the maximum plasma concentration (Cmax), the mean residence time (MRT) of ethanol in the body, and the bioavailability of ethanol. Data processing was conducted using specialized software XCMS, involving peak identification, integration, and normalization. Multivariate statistical analyses were performed on metabolite data to reveal metabolic differences between groups, such as principal component analysis (PCA) and orthogonal partial least squares discriminant analysis (OPLS-DA). Metabolites were annotated and compared with known databases (HMDB, METLIN) to confirm their identities. Differences in pharmacokinetic parameters among the NC, SC, and AM groups were compared to evaluate the effects of alcohol exposure and CYP450 enzymes, aiming to identify metabolite variances.

[2] = AM group, oral ethanol 12 weeks; vs NC and SC groups
Procedure: as §1, §2
Serum-related indicators were measured using commercial assay kits (BioSino Biotechnology and Science Inc., Beijing, China) following the manufacturer’s protocols. Specifically, serum samples, substrates, and buffer solutions were prepared according to the kit instructions. The reaction mixture was incubated at 37°C for 20 min, and absorbance was measured at 340 nm to record changes. Concentrations were calculated based on a standard curve ([Li et al., 2018]).

[3] = SC group (sucrose solution) rats
[4] = rat serum after long-term alcohol exposure

CCO [ethanol]
CYP3A1 protein expression, change (CYP3A1): higher | AUC0-∞ ([1]; AM group (alcohol intake) rats): 29120 ng·h/mL | Cmax ([1]; AM group (alcohol intake) rats): 2375 ng/mL | T1/2 ([1]; AM group (alcohol intake) rats): 2.88 h | T1/2 el ([1]; AM group (alcohol intake) rats): 17.04 h | Tmax ([1]; AM group (alcohol intake) rats): 4.76 h | MRT ([1]; AM group (alcohol intake) rats, p < 0.01 vs NC): 24.48 h | AUC0-L∞ ([1]; AM group (alcohol intake) rats): 27820 ng·h/mL | AUC0-∞ ([1]; NC group (normal control) rats): 22400 ng·h/mL | Cmax ([1]; NC group (normal control) rats): 1900 ng/mL | MRT ([1]; NC group (normal control) rats): 20.4 h | T1/2 ([1]; NC group (normal control) rats): 2.4 h | T1/2 el ([1]; NC group (normal control) rats): 14.2 h | Tmax ([1]; NC group (normal control) rats): 4.75 h | AUC0-L∞ ([1]; NC group (normal control) rats): 21400 ng·h/mL | Tmax, difference among the groups ([1]; NC, SC and AM groups, p > 0.05): no significant difference | AUC0-∞ [1, 3]: 21300 ng·h/mL | Cmax [1, 3]: 1890 ng/mL | MRT [1, 3]: 19.8 h | T1/2 [1, 3]: 2.35 h | T1/2 el [1, 3]: 13.5 h | Tmax [1, 3]: 4.68 h | AUC0-L∞, AM group vs other groups [1, 4]: significantly increased | AUC0-∞, AM group vs other groups [1, 4]: significantly increased | clearance, AM group vs other groups ([1]; rat, after long-term alcohol exposure): lower | MDA level [2]: significantly increased | SOD level [2]: significantly decreased | serum ALT level [2]: significantly increased | serum AST level [2]: significantly increased | total cholesterol (TC) level [2]: significantly increased | triglyceride (TG) level [2]: significantly increased
